Like-named read-outs stand apart in the source and are kept apart here.
Columns and labels:
T224A CYP3A4 [1] = target: T1, T224A CYP3A4 (Homo sapiens, UniProt P08684, T224A); assay: Stopped-flow kinetics of CYP3A4-fluorol complex formation (fluorol emission decay); assay type: binding
T1 construct: made in house
Description: (§1) During equilibrium titrations, fluorescence spectra were usually recorded 10–15 min after addition of CYP3A4, which could allow fluorol to adjust/change its initial binding position. To better understand the substrate/inhibitor effects, the kinetics of CYP3A4–fluorol complex formation were measured by monitoring decay of fluorol emission in a stopped-flow spectrophotometer. […] Fluorol binding to WT and T224A CYP3A4 was biphasic within the studied time interval (2 s). The rate constants for the fast and slow phases (kfast and kslow, respectively) determined for ligand-free and progesterone-bound CYP3A4 were virtually independent on fluorol concentration (Figure 5A–D). […] Likewise, kslow was elevated for ritonavir- and GS8-bound WT CYP3A4 but remained unchanged for the T224A mutant.
(§2) Kinetics of CYP3A4–fluorol complex formation were measured in a SX.18MV stopped-flow apparatus (Applied Photophysics, Leatherhead, UK) at 23 °C in 50 mM phosphate buffer, pH 7.4, containing 0.6 mg/mL β-cyclodextrin. WT or T224A CYP3A4 (2 μM) was mixed with 0.25–4 μM fluorol solution prepared from 1–3 mM stocks in DMSO. Equal amounts of DMSO were added to the protein solutions to avoid buffer-related changes in fluorol emission. Fluorescence changes were monitored with λex of 455 nm and a 495 nm cutoff emission filter. […] Kinetics were analyzed using the Igor Pro software (WaveMetrics, Oswego, OR, USA).

WT CYP3A4 = target: T2, WT CYP3A4 (Homo sapiens, UniProt P08684); assay: as above; assay type: binding
T2 construct: made in house
T2 sequence (P08684 with tags, fused parts or gaps): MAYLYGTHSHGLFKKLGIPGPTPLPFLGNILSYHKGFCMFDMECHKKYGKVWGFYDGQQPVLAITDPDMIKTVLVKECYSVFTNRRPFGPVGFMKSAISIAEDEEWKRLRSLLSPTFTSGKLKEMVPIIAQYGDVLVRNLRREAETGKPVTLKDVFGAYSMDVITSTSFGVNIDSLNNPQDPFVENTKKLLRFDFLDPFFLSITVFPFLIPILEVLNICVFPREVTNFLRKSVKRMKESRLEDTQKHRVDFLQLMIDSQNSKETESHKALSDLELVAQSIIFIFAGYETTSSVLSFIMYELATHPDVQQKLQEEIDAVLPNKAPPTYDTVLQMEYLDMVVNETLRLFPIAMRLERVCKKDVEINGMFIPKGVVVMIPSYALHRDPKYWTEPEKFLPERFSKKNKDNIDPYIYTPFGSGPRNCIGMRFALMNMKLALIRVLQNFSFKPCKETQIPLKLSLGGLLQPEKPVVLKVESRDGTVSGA
Description: as §1, §2

T224A CYP3A4 [2] = target: T1, T224A CYP3A4; assay: Fluorol oxidation in a reconstituted system with cytochrome P450 reductase; assay type: in vitro ADME; settings: 25 μM fluorol, 1 μM CYP3A4, 2 μM CPR, 37 °C; substrate/product ratio
Description: This possibility was tested in a reconstituted system with cytochrome P450 reductase. […] The mass shift of +16 Da implies that fluorol undergoes a single-site oxidation.
Fluorol metabolism—Oxidation of fluorol by WT and T224A CYP3A4 was assessed in a reconstituted system with cytochrome P450 reductase. Reaction was carried out at 37 °C in 100 mM potassium phosphate, pH 7.4, containing catalase and superoxide dismutase (2 units/mL each), 1 μM WT or T224A CYP3A4, 2 μM CPR, NADPH regenerating system (10 mM glucose, 0.2 mM NADP^+, and 2 units/mL glucose-6-phosphate dehydrogenase), and 25 μM fluorol. After addition of 80 μM NADPH, samples were gently shaken, and 0.5 mL aliquots were taken in 15 min intervals. The reaction was stopped by adding 2 mL of dichloromethane. After 30 s vortexing, 1 mL of 0.3 M NaCl was added, and the sample was vortexed again and centrifuged for 10 min at 3000× g and 4 °C. The bottom organic phase (1 mL) was transferred to a glass vial, evaporated under the stream of nitrogen, and dissolved in 150 μL of methanol. Samples were analyzed by electrospray ionization mass spectroscopy using a Micromass LCP Premier mass spectrometer (Waters, Milford, MA, USA) in the negative ion mode, with 0.2 mL/min methanol flow. Chromatogram analysis and integrations were performed with Waters MassLynx MS software.

[3] = design: method as in PMID 18831537; settings: cited from earlier work
CYP3A4 = CYP3A4 (Homo sapiens, UniProt P08684); design: method as in PMID 22194603; settings: prior study, cited from earlier work; for Kd: up to 60 μM fluorol
Chain of CYP3A4 (P08684 whole entry): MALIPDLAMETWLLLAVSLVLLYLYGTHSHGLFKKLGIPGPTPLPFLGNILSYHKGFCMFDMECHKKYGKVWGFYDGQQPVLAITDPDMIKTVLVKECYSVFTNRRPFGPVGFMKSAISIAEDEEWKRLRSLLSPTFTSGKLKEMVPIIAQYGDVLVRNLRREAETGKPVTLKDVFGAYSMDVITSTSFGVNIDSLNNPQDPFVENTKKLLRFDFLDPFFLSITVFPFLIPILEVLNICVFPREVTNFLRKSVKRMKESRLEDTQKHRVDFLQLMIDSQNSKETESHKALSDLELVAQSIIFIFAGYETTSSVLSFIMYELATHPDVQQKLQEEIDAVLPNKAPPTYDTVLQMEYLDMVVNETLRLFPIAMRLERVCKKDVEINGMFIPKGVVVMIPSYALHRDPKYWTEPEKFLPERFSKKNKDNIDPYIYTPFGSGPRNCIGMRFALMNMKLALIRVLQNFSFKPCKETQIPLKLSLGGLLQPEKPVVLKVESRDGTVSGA

T1 sequence (P08684 with tags, fused parts or gaps T224A): as the sequence (P08684 with tags, fused parts or gaps) above, with T204A counted along it

Amplitude of quenching, larger in T224A (T224A CYP3A4 [1]; ligand-free and progesterone/GS8-bound T224A CYP3A4): 35–50%
Amplitude of quenching, smaller in T224A (T224A CYP3A4 [1]; ritonavir-bound T224A CYP3A4): 60%
Fluorol binding kinetics (phases) (T224A CYP3A4 [1]; within 2 s): biphasic
Decrease in amplitude of quenching (WT CYP3A4; WT, in the presence of GS8, equimolar CYP3A4 and fluorol): ~ 20%
Increase in amplitude of quenching (WT CYP3A4; WT, in the presence of progesterone, equimolar CYP3A4 and fluorol): ~ 40%
Decrease in amplitude of quenching (WT CYP3A4; WT, in the presence of ritonavir, equimolar CYP3A4 and fluorol): ~ 20%
Fluorol binding kinetics (phases) (WT CYP3A4; within 2 s): biphasic
Efficiency of fluorol oxidation, mutant less efficient than WT (T224A CYP3A4 [2]): ~ 20%
Compound: CCCCNc1ccc2c3c(cccc13)C(=O)N(CCCC)C2=O [fluorol, 2-butyl-6-(butylamino)-1H-benzo[de]isoquinoline-1,3(2H)-dione]
Aqueous solubility [3]: limited aqueous solubility
Kd (CYP3A4; read-out: Kd, high-affinity site (peripheral area)): ~3 µM
Kd (CYP3A4; read-out: Kd, low-affinity area (catalytic cavity)): 10 µM
Hill coefficient (CYP3A4): 1.93

Source: PMC9604483, “Crystal Structure of CYP3A4 Complexed with Fluorol Identifies the Substrate Access Channel as a High-Affinity Ligand Binding Site” (International Journal of Molecular Sciences, 2022)
